Assay results from patent publication US20250136606A1, “MODULATORS OF TRPML, THEIR COMPOSITIONS AND METHODS OF USE” (Caraway Therapeutics, Inc., priority 2021, published 2025).
Where two headings read alike, the source gives them in different places.

Assays:
Assay type in all cases: cell-based
TRPML1 = TRPML1 (Homo sapiens, UniProt Q9GZU1); assay: Fluorescent TRPML1 assay (Fluo4-AM calcium fluorescence in doxycycline-induced HEK-293 Trex cells)
Procedure, shortened: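 First, expression of surface-targeted mutant human TRPML1 is induced in HEK-293 Trex cells with 0.5 ug/mL doxycycline the day before. Next, cells take up 1 micromolar Fluo4-AM in Ringer's with 0.1% Pluronic. Finally, they are added to compounds (6 nanomolar–20 micromolar final) in 10 mM calcium Ringer's and fluorescence is read.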

TRPML2 = target: T1, TRPML2 (Homo sapiens, UniProt Q8IZK6); assay: Fluorescent TRPML2 assay (performed as for TRPML1, substituting the TRPML2 subtype)
T1 construct: expressed in transfected cells
T1 sequence (Q8IZK6 1-566): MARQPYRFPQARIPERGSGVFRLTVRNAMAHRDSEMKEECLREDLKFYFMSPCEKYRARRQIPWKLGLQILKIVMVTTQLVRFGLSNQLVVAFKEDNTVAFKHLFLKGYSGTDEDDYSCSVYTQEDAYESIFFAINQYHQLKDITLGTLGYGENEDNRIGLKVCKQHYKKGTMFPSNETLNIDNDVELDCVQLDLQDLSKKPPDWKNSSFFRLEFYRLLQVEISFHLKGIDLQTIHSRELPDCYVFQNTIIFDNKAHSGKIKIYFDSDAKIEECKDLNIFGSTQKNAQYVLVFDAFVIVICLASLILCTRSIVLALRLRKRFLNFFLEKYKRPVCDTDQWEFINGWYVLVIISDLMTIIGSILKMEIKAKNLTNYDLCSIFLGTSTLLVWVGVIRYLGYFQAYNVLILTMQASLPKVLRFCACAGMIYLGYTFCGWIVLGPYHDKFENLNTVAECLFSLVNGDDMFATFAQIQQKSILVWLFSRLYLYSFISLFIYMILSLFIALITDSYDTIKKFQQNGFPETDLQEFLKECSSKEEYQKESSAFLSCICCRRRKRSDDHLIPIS
Procedure, shortened: (§1)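 Doxycycline-induced (0.5 ug/mL) HEK-293 Trex cells stably expressing surface-directed mutant channel were loaded with 1 micromolar Fluo4-AM, resuspended in Ringer's with 10 mM calcium and added to compound plates. Fluorescence (ex 480, em 540 nm) gave percent activity versus on-plate controls; EC50 by non-linear regression.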

TRPML3 = target: T2, TRPML3 (Homo sapiens, UniProt Q8TDD5); assay: Fluorescent TRPML3 assay (performed as for TRPML1, substituting the TRPML3 subtype)
T2 construct: expressed in transfected cells
T2 sequence (Q8TDD5 1-553): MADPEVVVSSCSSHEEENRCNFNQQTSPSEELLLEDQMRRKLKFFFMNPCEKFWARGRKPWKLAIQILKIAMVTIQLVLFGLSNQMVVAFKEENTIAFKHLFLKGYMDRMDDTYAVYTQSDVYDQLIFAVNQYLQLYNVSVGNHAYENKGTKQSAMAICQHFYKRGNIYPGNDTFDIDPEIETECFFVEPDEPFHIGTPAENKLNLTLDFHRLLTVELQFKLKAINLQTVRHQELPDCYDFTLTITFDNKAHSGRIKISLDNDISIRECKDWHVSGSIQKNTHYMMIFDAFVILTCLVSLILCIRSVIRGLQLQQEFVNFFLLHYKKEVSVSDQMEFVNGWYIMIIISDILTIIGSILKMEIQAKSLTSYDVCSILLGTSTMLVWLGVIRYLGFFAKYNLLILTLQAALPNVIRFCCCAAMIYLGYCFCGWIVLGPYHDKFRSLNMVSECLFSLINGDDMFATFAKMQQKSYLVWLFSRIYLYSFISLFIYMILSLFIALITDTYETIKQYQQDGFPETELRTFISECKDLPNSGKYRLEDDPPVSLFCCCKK
Procedure, shortened: as §1

Chain of TRPML1 (Q9GZU1 whole entry L15A/L16A/L577A/L578A, form open): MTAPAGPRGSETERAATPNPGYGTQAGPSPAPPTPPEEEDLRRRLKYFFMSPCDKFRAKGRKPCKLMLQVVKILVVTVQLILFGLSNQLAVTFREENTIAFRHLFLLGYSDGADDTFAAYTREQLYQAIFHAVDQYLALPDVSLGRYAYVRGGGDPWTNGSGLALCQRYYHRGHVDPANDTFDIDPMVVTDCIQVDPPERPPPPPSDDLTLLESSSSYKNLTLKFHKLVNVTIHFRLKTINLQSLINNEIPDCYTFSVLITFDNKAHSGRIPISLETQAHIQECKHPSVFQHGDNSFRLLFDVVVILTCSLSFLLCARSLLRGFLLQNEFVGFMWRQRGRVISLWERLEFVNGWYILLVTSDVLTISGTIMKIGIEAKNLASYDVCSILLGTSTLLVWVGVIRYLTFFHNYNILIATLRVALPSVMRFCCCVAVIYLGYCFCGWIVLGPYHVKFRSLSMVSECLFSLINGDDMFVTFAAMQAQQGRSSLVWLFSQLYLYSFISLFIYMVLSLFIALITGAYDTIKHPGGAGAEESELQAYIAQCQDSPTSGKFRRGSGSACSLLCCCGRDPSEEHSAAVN

## CCN(CC)c1cn(-c2cc(C#N)ccn2)c2ncnc(N3CCN(C(=O)OC(C)(C)C(F)(F)F)C[C@@H]3C)c12 [Compound 422, 1,1,1-trifluoro-2-methylpropan-2-yl (S)-4-(7-(4-cyanopyridin-2-yl)-5-(diethylamino)-7H-pyrrolo[2,3-d]pyrimidin-4-yl)-3-methylpiperazine-1-carboxylate]
TRPML1; fluorescent calcium assay
  EC50: < 0.1 µM
TRPML2; fluorescent calcium assay
  EC50: 0.1 to 0.5 µM
TRPML3; fluorescent calcium assay
  EC50: < 0.1 µM

## C[C@@H]1CN(c2ncnc3c2c(C(F)F)cn3-c2cccc(Cl)c2)[C@@H](C)CN1C(=O)OC1(C)CC1 [Compound 608, 1-methylcyclopropyl (2R,5S)-4-(7-(3-chlorophenyl)-5-(difluoromethyl)-7H-pyrrolo[2,3-d]pyrimidin-4-yl)-2,5-dimethylpiperazine-1-carboxylate]
TRPML1
  EC50: 0.1 to 0.5 µM
TRPML2
  EC50: > 2 µM
TRPML3
  EC50: < 0.1 µM

## CCOC(=O)N1CCN(c2ncnc3c2c(C2CC2)cn3-c2ccc(Cl)cc2)[C@@H](C)C1 [Compound 112, ethyl (S)-4-(7-(4-chlorophenyl)-5-cyclopropyl-7H-pyrrolo[2,3-d]pyrimidin-4-yl)-3-methylpiperazine-1-carboxylate]
TRPML1; fluorescent calcium assay
  EC50: 0.1 to 0.5 µM
TRPML2; fluorescent calcium assay
  EC50: 0.1 to 0.5 µM
TRPML3; fluorescent calcium assay
  EC50: 0.5 to 2 µM

## C[C@@H]1CN(c2ncnc3c2c(C(F)(F)F)cn3-c2cc(F)cc(F)c2)[C@@H](C)CN1C(=O)OC1(C)CC1 [Compound 661, 1-methylcyclopropyl (2R,5S)-4-(7-(3,5-difluorophenyl)-5-(trifluoromethyl)-7H-pyrrolo[2,3-d]pyrimidin-4-yl)-2,5-dimethylpiperazine-1-carboxylate]
TRPML1
  EC50: 0.1 to 0.5 µM
TRPML2
  EC50: 0.5 to 2 µM
TRPML3
  EC50: 0.1 to 0.5 µM

## CCc1cn(-c2cc(C(F)(F)F)ccn2)c2ncnc(N3C[C@@H](C)N(C(=O)OC(C)(C)C)C[C@@H]3C)c12 [Compound 696, tert-butyl (2R,5S)-4-(5-ethyl-7-(4-(trifluoromethyl)pyridin-2-yl)-7H-pyrrolo[2,3-d]pyrimidin-4-yl)-2,5-dimethylpiperazine-1-carboxylate]
TRPML1
  EC50: < 0.1 µM
TRPML2
  EC50: < 0.1 µM
TRPML3
  EC50: < 0.1 µM

## C[C@@H]1CN(c2ncnc3c2c(N2CCC2)cn3-c2cc(F)cc(F)c2)[C@@H](C)CN1C(=O)OC(C)(C)C [Compound 497, tert-butyl (2R,5S)-4-(5-(azetidin-1-yl)-7-(3,5-difluorophenyl)-7H-pyrrolo[2,3-d]pyrimidin-4-yl)-2,5-dimethylpiperazine-1-carboxylate]
TRPML1
  EC50: < 0.1 µM
TRPML2
  EC50: < 0.1 µM
TRPML3
  EC50: < 0.1 µM

## C[C@H]1CN(C(=O)OC(C)(C)C)CCN1c1ncnc2c1c(C1CC1(F)F)cn2-c1cc(C#N)ccn1 (stereo partly drawn) [Compound 365, tert-butyl (3S)-4-(7-(4-cyanopyridin-2-yl)-5-(2,2-difluorocyclopropyl)-7H-pyrrolo[2,3-d]pyrimidin-4-yl)-3-methylpiperazine-1-carboxylate]
TRPML1; fluorescent calcium assay
  EC50: < 0.1 µM
TRPML2; fluorescent calcium assay
  EC50: 0.1 to 0.5 µM
TRPML3; fluorescent calcium assay
  EC50: < 0.1 µM

## Cc1cn(-c2cccc(F)c2)c2ncnc(N3CCN(C(=O)OC(C)(C)C)C[C@@H]3C)c12 [Compound 683, tert-butyl (S)-4-(7-(3-fluorophenyl)-5-methyl-7H-pyrrolo[2,3-d]pyrimidin-4-yl)-3-methylpiperazine-1-carboxylate]
TRPML1
  EC50: < 0.1 µM
TRPML2
  EC50: 0.1 to 0.5 µM
TRPML3
  EC50: < 0.1 µM

## CCN(CC)c1cn(-c2cc(C#N)ccn2)c2ncnc(N3CCN(C(=O)OC(C)(C)C)[C@H](C)C3)c12 [Compound 425, tert-butyl (R)-4-(7-(4-cyanopyridin-2-yl)-5-(diethylamino)-7H-pyrrolo[2,3-d]pyrimidin-4-yl)-2-methylpiperazine-1-carboxylate]
TRPML1; fluorescent calcium assay
  EC50: < 0.1 µM
TRPML2; fluorescent calcium assay
  EC50: 0.1 to 0.5 µM
TRPML3; fluorescent calcium assay
  EC50: < 0.1 µM

## Cc1cn(-c2cncc(C#N)c2)c2ncnc(N3C[C@@H](C)N(C(=O)OC(C)(C)C)C[C@@H]3C)c12 [Compound 675, tert-butyl (2R,5S)-4-(7-(5-cyanopyridin-3-yl)-5-methyl-7H-pyrrolo[2,3-d]pyrimidin-4-yl)-2,5-dimethylpiperazine-1-carboxylate]
TRPML1
  EC50: < 0.1 µM
TRPML2
  EC50: 0.1 to 0.5 µM
TRPML3
  EC50: 0.1 to 0.5 µM

## C[C@H]1CN(C(=O)OC(C)(C)C)CCN1c1ncnc2c1c(C1CCOCC1)nn2-c1ccccc1 [Compound 261, tert-butyl (S)-3-methyl-4-(1-phenyl-3-(tetrahydro-2H-pyran-4-yl)-1H-pyrazolo[3,4-d]pyrimidin-4-yl)piperazine-1-carboxylate]
TRPML1; fluorescent calcium assay
  EC50: 0.5 to 2 µM
TRPML2; fluorescent calcium assay
  EC50: > 2 µM
TRPML3; fluorescent calcium assay
  EC50: 0.5 to 2 µM

## COc1ccnc(-n2cc(C(F)(F)F)c3c(N4C[C@@H](C)N(C(=O)OC(C)(C)C)C[C@@H]4C)ncnc32)c1 [Compound 664, tert-butyl (2R,5S)-4-(7-(4-methoxypyridin-2-yl)-5-(trifluoromethyl)-7H-pyrrolo[2,3-d]pyrimidin-4-yl)-2,5-dimethylpiperazine-1-carboxylate]
TRPML1
  EC50: < 0.1 µM
TRPML2
  EC50: 0.5 to 2 µM
TRPML3
  EC50: < 0.1 µM

## C[C@H]1CN(C(=O)OC(C)(C)C)CCN1c1ncnc2c1c(-c1ccccn1)cn2-c1ccc(F)c(Cl)c1 [Compound 154, tert-butyl (S)-4-(7-(3-chloro-4-fluorophenyl)-5-(pyridin-2-yl)-7H-pyrrolo[2,3-d]pyrimidin-4-yl)-3-methylpiperazine-1-carboxylate]
TRPML1; fluorescent calcium assay
  EC50: < 0.1 µM
TRPML2; fluorescent calcium assay
  EC50: < 0.1 µM
TRPML3; fluorescent calcium assay
  EC50: < 0.1 µM

## C[C@H]1CN(C(=O)OC(C)(C)C(F)(F)F)CCN1c1ncnc2c1c(C1CC1)cn2-c1cccc(C#N)c1 [Compound 266, 1,1,1-trifluoro-2-methylpropan-2-yl (S)-4-(7-(3-cyanophenyl)-5-cyclopropyl-7H-pyrrolo[2,3-d]pyrimidin-4-yl)-3-methylpiperazine-1-carboxylate]
TRPML1; fluorescent calcium assay
  EC50: < 0.1 µM
TRPML2; fluorescent calcium assay
  EC50: 0.5 to 2 µM
TRPML3; fluorescent calcium assay
  EC50: < 0.1 µM

## C[C@@H]1CN(c2ncnc3c2c(C(F)F)cn3-c2cccc(F)c2)[C@@H](C)CN1C(=O)OC(C)(C)C [Compound 695, tert-butyl (2R,5S)-4-(5-(difluoromethyl)-7-(3-fluorophenyl)-7H-pyrrolo[2,3-d]pyrimidin-4-yl)-2,5-dimethylpiperazine-1-carboxylate]
TRPML1
  EC50: < 0.1 µM
TRPML2
  EC50: 0.1 to 0.5 µM
TRPML3
  EC50: < 0.1 µM

## C[C@H]1CN(C(=O)OC(C)(C)C)CCN1c1ncnc2c1c(C1CCC1)cn2-c1cccc(F)c1 [Compound 641, tert-butyl (S)-4-(5-cyclobutyl-7-(3-fluorophenyl)-7H-pyrrolo[2,3-d]pyrimidin-4-yl)-3-methylpiperazine-1-carboxylate]
TRPML1
  EC50: < 0.1 µM
TRPML2
  EC50: < 0.1 µM
TRPML3
  EC50: < 0.1 µM

## C[C@@H]1CN(c2ncnc3c2c(-c2ccccn2)cn3-c2cc(C#N)ccn2)CCN1C(=O)OC(C)(C)C [Compound 367, tert-butyl (R)-4-(7-(4-cyanopyridin-2-yl)-5-(pyridin-2-yl)-7H-pyrrolo[2,3-d]pyrimidin-4-yl)-2-methylpiperazine-1-carboxylate]
TRPML1; fluorescent calcium assay
  EC50: < 0.1 µM
TRPML2; fluorescent calcium assay
  EC50: 0.1 to 0.5 µM
TRPML3; fluorescent calcium assay
  EC50: < 0.1 µM

## Cc1nccnc1-c1cn(-c2cc(F)cc(F)c2)c2ncnc(N3CCN(C(=O)OC(C)(C)CF)C[C@@H]3C)c12 [Compound 248, 1-fluoro-2-methylpropan-2-yl (S)-4-(7-(3,5-difluorophenyl)-5-(3-methylpyrazin-2-yl)-7H-pyrrolo[2,3-d]pyrimidin-4-yl)-3-methylpiperazine-1-carboxylate]
TRPML1; fluorescent calcium assay
  EC50: 0.5 to 2 µM
TRPML2; fluorescent calcium assay
  EC50: > 2 µM
TRPML3; fluorescent calcium assay
  EC50: 0.5 to 2 µM

## C[C@H]1CN(C(=O)OC(C)(C)C)CCN1c1ncnc2c1c(N1CCC1)cn2-c1cccc(Cl)c1 [Compound 493, tert-butyl (S)-4-(5-(azetidin-1-yl)-7-(3-chlorophenyl)-7H-pyrrolo[2,3-d]pyrimidin-4-yl)-3-methylpiperazine-1-carboxylate]
TRPML1; fluorescent calcium assay
  EC50: < 0.1 µM
TRPML2; fluorescent calcium assay
  EC50: < 0.1 µM
TRPML3; fluorescent calcium assay
  EC50: < 0.1 µM
